Test results taken from patent publication US8778985B2, “Inhibiting amyloid-beta peptide/rage interaction at the blood-brain barrier” (The University of Rochester, priority 2006, dated 2014).

Tested on: APPsw+/− mice
Experiment: Memory testing: novel object location and novel object recognition, chronic treatment of APPsw+/− mice
Type: in vivo
Conditions: 1 mg/kg per day i.p. for two months from 8 months of age
Description: (A) Percent increase in cerebral blood flow (CBF) in response to brain activation in mice treated with vehicle (open bar) or FPS2 (closed bar). (B-C) novel object location (B) and novel object recognition (C) expressed as percent exploratory preference in APPsw^+/− mice treated with vehicle (open bar) or FPS2 (closed bar). FPS2 (1 mg/kg per day) was intraperitoneally administered for two months beginning at the age of 8 months old mice. Values are means±s.e.m, n=5-6 per group.
APPsw^+/− mice were treated with FPS2 (1 mg/kg) or with vehicle daily by intraperitoneal injection for two months starting at 8 months old. At the end of the treatment period functional changes in cerebral blood flow (CBF) to brain activation, and memory tests were determined. Brain and plasma Aβ levels were also determined in FPS2 and vehicle treated mice. […]
Compounds were synthesized in parallel using semiautomated chemical reactions. […] Purity was assessed by reverse-phase gradient HPLC. […] After two months of treatment, (i) the cerebral blood flow response to brain activation (whisker stimulation) was measured and (ii) behavioral tests including operant learning, novel object location (NOL), and novel object recognition (NOR) were performed. After these functional tests, the mice were sacrificed and their brains analyzed for Aβ40, Aβ42, and amyloid levels. • CBF response to brain activation. […]

Compound: CC(CC(=O)NCCCN(C(=O)c1cc([N+](=O)[O-])cc([N+](=O)[O-])c1)c1ccccc1)CC(C)(C)C (centres unmarked) [FPS2, 3,5-dinitro-N-phenyl-N-[3-[(3,5,5-trimethyl-1-oxohexyl)amino]propyl]-(9Cl)-benzamide]
- memory, novel object location: significantly increased
- memory, novel object recognition: significantly increased
